Assay results from patent US20260234112A1, “COMPOUNDS, COMPOSITIONS, AND METHODS OF USE THEREOF” (Type6 Therapeutics, Inc., priority 2023, published 2026).

Molecular target: T1, Cdk2(2-298) (Homo sapiens, UniProt P24941)
T1 construct: Biotinylated N-terminal avi-tagged Cdk2(2-298) or Cdk1(1-297) was immobilized
Test: Surface Plasmon Resonance (SPR) compound interaction, Biacore 8K
Format: binding
Settings: single-cycle kinetics (SCK, "S"), dissociation 1800 sec, read-out: Activity rating (KD)
Procedure, shortened: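 Biotinylated N-terminal avi-tagged Cdk2(2-298) captured on streptavidin chip at 2500–3000 RU in 25 mM HEPES, 150 mM NaCl, 0.05% Tween20, pH 7.5, 1% DMSO final. Eight 3-fold compound concentrations injected 120 sec at 30 μl/min, multi- or single-cycle kinetics; dissociation 180 sec (MCK) or 1800 sec (SCK).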

Row | SMILES | Kd
1 | CN(CCNc1nccc(-c2cnccc2Oc2ccc(NS(=O)(=O)c3ccccc3Cl)cc2F)n1)S(C)(=O)=O [Compound 100] | ≤ 0.01 µM
2 | COCCNCCNc1nccc(-c2cnccc2Oc2ccc(NS(=O)(=O)c3ccccc3Cl)cc2F)n1 [Compound 104] | 0.1 to 1 µM
3 | N[C@H]1CC[C@H](Nc2nccc(-c3cccnc3Sc3ccc(NS(=O)(=O)c4ccccc4Cl)cc3F)n2)CC1 [Compound 108, N-(4-((3-(2-(((1r,4r)-4-Aminocyclohexyl)amino)pyrimidin-4-yl)pyridin-2-yl)thio)-3-fluorophenyl) 2-chlorobenzenesulfonamide] | ≤ 0.01 µM
4 | O=S(=O)(Nc1ccc(Sc2ncccc2-c2ccnc(N[C@H]3CCCNC3)n2)c(F)c1)c1ccccc1Cl [Compound 109, N-[3-Fluoro-4-[[3-[2-[[(3S)-3-piperidyl]amino]pyrimidin-4-yl]-2-pyridyl]thio]phenyl] 2-chlorobenzenesulfonamide] | ≤ 0.01 µM
5 | N[C@H]1CC[C@H](Nc2nccc(-c3cccnc3Sc3ccc(NS(=O)(=O)c4ccccc4)cc3F)n2)CC1 [Compound 110, N-(4-((3-(2-(((1r,4r)-4-Aminocyclohexyl)amino)pyrimidin-4-yl)pyridin-2-yl)thio)-3-fluorophenyl) benzenesulfonamide] | 0.011 to 0.1 µM
6 | N[C@H]1CC[C@H](Nc2nccc(-c3cccnc3Sc3ccc(NS(=O)(=O)c4cccc5ccccc45)cc3F)n2)CC1 [Compound 111, N-(4-((3-(2-(((1r,4r)-4-Aminocyclohexyl)amino)pyrimidin-4-yl)pyridin-2-yl)thio)-3-fluorophenyl) naphthalene-1-sulfonamide] | 0.011 to 0.1 µM
7 | O=S(=O)(Nc1ccc(Sc2ncccc2-c2ccnc(N[C@H]3CCCNC3)n2)c(F)c1)c1cccc2ccccc12 [Compound 113, N-[3-fluoro-4-[[3-[2-[[(3S)-3-piperidyl]amino]pyrimidin-4-yl]-2-pyridyl]sulfanyl]phenyl] naphthalene-1-sulfonamide] | 0.1 to 1 µM
8 | N[C@H]1CC[C@H](Nc2nccc(-c3cnccc3Sc3ccc(NS(=O)(=O)c4ccccc4Cl)cc3F)n2)CC1 [Compound 116, N-[4-[[3-[2-[((1r,4r)4 aminocyclohexyl)amino]pyrimidin-4-yl]-4-pyridyl]thio]-3-fluoro-phenyl] 2-chlorobenzenesulfonamide] | ≤ 0.01 µM
9 | N[C@H]1CC[C@H](Nc2nccc(-c3cnccc3Sc3ccc(NS(=O)(=O)c4ccccc4)cc3F)n2)CC1 [Compound 117, N-[4-(1r,4r)[[3-[2-[(4-aminocyclohexyl)amino]pyrimidin-4-yl]-4-pyridyl]sulfanyl]-3-fluorophenyl] benzenesulfonamide] | 0.011 to 0.1 µM
10 | N[C@H]1CC[C@H](Nc2nccc(-c3cnccc3Sc3ccc(NS(=O)(=O)c4cccc5ccccc45)cc3F)n2)CC1 [Compound 118, N-[4-(1r,4r)[[3-[2-[(4-Aminocyclohexyl)amino]pyrimidin-4-yl]-4-pyridyl]sulfanyl]-3-fluorophenyl]naphthalene-1-sulfonamide] | 0.1 to 1 µM
11 | O=S(=O)(Nc1ccc(Oc2ncncc2-c2ccnc(N[C@H]3CCCNC3)n2)c(F)c1)c1ccccc1Cl [Compound 127, N-[3-fluoro-4-[5-[2-[[(3S)-3-piperidyl]amino]pyrimidin-4-yl]pyrimidin-4-yl]oxyphenyl] 2-chlorobenzenesulfonamide] | 0.011 to 0.1 µM
12 | N[C@H]1CC[C@H](Nc2nccc(-c3cncnc3Oc3ccc(NS(=O)(=O)c4ccccc4Cl)cc3F)n2)CC1 [Compound 128, N-[4-[5-[2-[(1r,4r)(4-aminocyclohexyl)amino]pyrimidin-4-yl]pyrimidin-4-yl]oxy-3-fluorophenyl] 2-chlorobenzenesulfonamide] | ≤ 0.01 µM
13 | O=S(=O)(Nc1ccc(Oc2ncncc2-c2ccnc(N[C@H]3CCCNC3)n2)c(F)c1)c1ccccc1 [Compound 129, N-[3-fluoro-4-[5-[2-[[(3S)-3-piperidyl]amino]pyrimidin-4-yl]pyrimidin-4-yl]oxy-phenyl] benzenesulfonamide] | 0.1 to 1 µM
14 | N[C@H]1CC[C@H](Nc2nccc(-c3cncnc3Oc3ccc(NS(=O)(=O)c4ccccc4)cc3F)n2)CC1 [Compound 130, N-[4-[5-[2-[(1r,4r)(4-aminocyclohexyl)amino]pyrimidin-4-yl]pyrimidin-4-yl]oxy-3-fluoro-phenyl] benzenesulfonamide] | 1 to 5 µM
15 | N[C@H]1CC[C@H](Nc2nccc(-c3ccncc3Oc3ccc(NS(=O)(=O)c4ccccc4Cl)cc3F)n2)CC1 [Compound 131, N-[4-(1r,4r)[[4-[2-[(4-aminocyclohexyl)amino]pyrimidin-4-yl]-3-pyridyl]oxy]-3-fluorophenyl] 2-chlorobenzenesulfonamide] | 0.011 to 0.1 µM
16 | N[C@H]1CC[C@H](Nc2nccc(-c3ncccc3Oc3ccc(NS(=O)(=O)c4ccccc4Cl)cc3F)n2)CC1 [Compound 132, N-[4-[[2-[2-(1r,4r)[(4-Aminocyclohexyl)amino]pyrimidin-4-yl]-3-pyridyl]oxy]-3-fluoro-phenyl] 2-chlorobenzenesulfonamide] | 0.1 to 1 µM

Other lines, results leading:

Row | Kd | SMILES
17 | 0.011 to 0.1 µM | O=S(=O)(Nc1ccc(Oc2ccncc2-c2ccnc(NC3CNC3)n2)c(F)c1)c1ccccc1Cl [Compound 98]
18 | 0.1 to 1 µM | CN1CC2(CC(Nc3nccc(-c4cnccc4Oc4ccc(NS(=O)(=O)c5ccccc5Cl)cc4F)n3)C2)C1 [Compound 99]
19 | 0.011 to 0.1 µM | O=S(=O)(Nc1ccc(Oc2ccncc2-c2ccnc(NC3CN(C4COC4)C3)n2)c(F)c1)c1ccccc1Cl [Compound 101]
20 | 0.011 to 0.1 µM | CN1CC(Nc2nccc(-c3cnccc3Oc3ccc(NS(=O)(=O)c4ccccc4Cl)cc3F)n2)C1 [Compound 102]
21 | 0.1 to 1 µM | CS(=O)(=O)N1CCC[C@H](Nc2nccc(-c3cnccc3Oc3ccc(NS(=O)(=O)c4ccccc4Cl)cc3F)n2)C1 [Compound 103]
22 | 0.011 to 0.1 µM | COCCN1CC(Nc2nccc(-c3cnccc3Oc3ccc(NS(=O)(=O)c4ccccc4Cl)cc3F)n2)C1 [Compound 105]
23 | 0.1 to 1 µM | O=S(=O)(Nc1ccc(Oc2ccncc2-c2ccnc(NC3CN(CCO)C3)n2)c(F)c1)c1ccccc1Cl [Compound 106]
24 | 0.1 to 1 µM | COCCOCCN1CC(Nc2nccc(-c3cnccc3Oc3ccc(NS(=O)(=O)c4ccccc4Cl)cc3F)n2)C1 [Compound 107]
